Experimental data taken from US20230248657A1, “METHODS OF ADMINISTERING TASTE MASKED PHENYLBUTYRATE AND COMPOSITIONS THEREFOR” (Acer Therapeutics Inc., priority 2020, published 2023).

Experiment: Multi-dose plasma PK of PBA, GPB vs. BUPHENYL (NaPB), TID, fed
Format: in vivo, human
Conditions: GPB avg. dose 13.5 TID, N = 44, arithmetic mean

Plasma PBA AUC0-24: 443 µg·h/mL
Plasma PBA Cmax: 51.9 µg/mL
Plasma PBA Tmax: 8.0 h
SMILES: O=C(CCCc1ccccc1)OCC(COC(=O)CCCc1ccccc1)OC(=O)CCCc1ccccc1 [GPB, glycerol phenylbutyrate]
